IC50 data for 34 compounds are collected here from patent US11136311B2, “Heteroaromatic derivatives as NIK inhibitors” (Janssen Pharmaceutica NV, priority 2016, dated 2021).

Assay [1] concerns the target recombinant human NF-kappaB-inducing kinase (NIK/MAP3K14) (Homo sapiens (Human), UniProt Q99558). The assay is described as follows: Inhibition of auto-phosphorylation of recombinant human NIK/MAP3K14 activity (AlphaScreen). The following applies: averaged values over all measurements on all batches. Format: biochemical. As for the experimental part: Inhibition of auto-phosphorylation of recombinant human NF-kappaB-inducing kinase (NIK/MAP3K14) activity (AlphaScreen®)
NIK/MAP3K14 auto-phosphorylation activity was measured using the AlphaScreen® (αscreen) format (Perkin Elmer). All compounds tested were dissolved in dimethyl sulfoxide (DMSO) and further dilutions were made in assay buffer. Final DMSO concentration was 1% (v/v) in assays. Assay buffer was 50 mM Tris pH 7.5 containing 1 mM EGTA (ethylene glycol tetraacetic acid), 1 mM DTT (dithiothreitol), 0.1 mM Na3VO4, 5 mM MgCl2, 0.01% Tween® 20. Assays were carried out in 384 well Alphaplates (Perkin Elmer). Incubations consisted of compound, 25 microM Adenosine-5′-triphosphate (ATP), and 0.2 nM NIK/MAP3K14. Incubations were initiated by addition of GST-tagged NIK/MAP3K14 enzyme, carried out for 1 h at 25° C. and terminated by addition of stop buffer containing anti-phospho-IKK Ser176/180 antibody. Protein A Acceptor and Glutathione-Donor beads were added before reading using an EnVision® Multilabel Plate Reader (Perkin Elmer). Signal obtained in the wells containing blank samples was subtracted from all other wells and IC50's were determined by fitting a sigmoidal curve to % inhibition of control versus Log10 compound concentration.
On the technique in general: Alpha assays give light when donor and acceptor beads are brought close together.

In assay [2] the test system is KMS12-BM cells. As to the kind of experiment: Antiproliferative activity on KMS12-BM (NIK WT) multiple myeloma cells (CellTiter-Glo). The following applies: KMS12-BM (NIK WT) cells, 96 hr, averaged values, read-out: KMS-12 Proliferation inhibition (IC50 (nM)). Format: cell-based, human. How it is done:
(§1) Determination of antiproliferative activity on JJN-3 (NIK translocated) and KMS12-BM (NIK WT) multiple myeloma cells
(§2) All compounds tested were dissolved in DMSO and further dilutions were made in culture medium. Final DMSO concentration was 0.3% (v/v) in cell proliferation assays. Viability was assessed using CellTiter-Glo cell viability assay kit (Promega). The human JJN-3 and KMS12-BM cells (DSMZ) were cultured in RPMI 1640 medium supplemented with 2 mM L-glutamine, and 10% fetal calf serum (PAA). Cells were routinely kept as suspension cells at 37° C. in a humidified 5% CO2 atmosphere. Cells were passaged at a seeding density of 0.2×10^6/ml twice a week. Cells were seeded in black tissue culture treated 96-well plates (Perkin Elmer). Densities used for plating ranged from 15000 (JJN3) to 20000 (KMS12BM) cells per well in a total volume of 135 μl medium. Drugs and/or solvents were added (15 μl) to a final volume of 150 μl. Following 96 hr of treatment, plates were removed from the incubator and allowed to equilibrate to room temperature for approx 10 min. 75 μl CellTiter-Glo reagent was added to each well that was then covered (Perkin Elmer Topseal) and shaken on plate shaker for 10 min. Luminescence was measured on a HTS Topcount (Perkin Elmer). Within an experiment, the results for each treatment were the mean of 2 replicate wells. For initial screening purposes, compounds were tested using a 9 point dilution curve (serial 1:3 dilutions). For each experiment, controls (containing no drug) and a blank incubation (containing cells read at the time of compound addition) were run in parallel. The blank value was subtracted from all control and sample values. For each sample, the mean value for cell growth (in relative light units) was expressed as a percentage of the mean value for cell growth of the control.
On the technique in general: ATP-based viability assays read luminescence as a measure of living cells.

The subject of assay [3] is JJN-3 cells. The assay is described as follows: Antiproliferative activity on JJN-3 (NIK translocated) multiple myeloma cells (CellTiter-Glo). The assay is classed as cell-based, human. To be noted: JJN-3 (NIK translocated) cells, 96 hr, averaged values, read-out: JJN-3 Proliferation inhibition (IC50 (nM)). As for the experimental part:
as §1, §2

Structures are written as SMILES. Where two headings read alike, the source gives them in different places.

recombinant human NF-kappaB-inducing kinase (NIK/MAP3K14), sequence (Q99558 whole entry): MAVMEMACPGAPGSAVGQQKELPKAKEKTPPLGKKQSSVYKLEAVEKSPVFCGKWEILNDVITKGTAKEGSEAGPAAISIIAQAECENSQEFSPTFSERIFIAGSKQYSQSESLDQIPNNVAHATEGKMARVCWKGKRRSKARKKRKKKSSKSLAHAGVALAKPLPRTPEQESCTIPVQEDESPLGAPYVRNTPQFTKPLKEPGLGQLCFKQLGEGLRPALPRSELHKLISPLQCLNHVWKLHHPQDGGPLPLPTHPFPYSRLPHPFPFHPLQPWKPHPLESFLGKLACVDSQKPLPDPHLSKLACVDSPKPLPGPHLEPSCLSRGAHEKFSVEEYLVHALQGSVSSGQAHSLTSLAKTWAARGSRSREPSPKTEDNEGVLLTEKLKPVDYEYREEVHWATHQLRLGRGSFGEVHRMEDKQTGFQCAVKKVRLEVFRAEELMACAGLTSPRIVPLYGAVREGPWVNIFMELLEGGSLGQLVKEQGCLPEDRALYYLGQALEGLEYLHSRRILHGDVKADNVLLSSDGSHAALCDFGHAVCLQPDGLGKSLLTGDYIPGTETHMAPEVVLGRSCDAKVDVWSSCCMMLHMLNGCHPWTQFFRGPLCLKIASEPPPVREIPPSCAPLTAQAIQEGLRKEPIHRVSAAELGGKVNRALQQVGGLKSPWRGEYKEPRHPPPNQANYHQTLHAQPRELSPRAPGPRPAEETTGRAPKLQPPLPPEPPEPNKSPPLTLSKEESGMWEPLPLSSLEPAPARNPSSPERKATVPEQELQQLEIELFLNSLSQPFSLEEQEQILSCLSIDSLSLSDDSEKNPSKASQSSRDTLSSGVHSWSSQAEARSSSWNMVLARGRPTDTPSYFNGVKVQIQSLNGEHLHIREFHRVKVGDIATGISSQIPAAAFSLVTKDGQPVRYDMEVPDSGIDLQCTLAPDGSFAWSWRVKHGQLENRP

Turning to `Cc1cc(Nc2nccc(-c3cc(C#N)c4c(c3)[C@@](C)(CO)CN4)n2)n(C2CCS(=O)(=O)C2)n1` (mixture of isomers) [Compound 33], the IC50 is 9.1 nM in assay [1]; ~6170 nM in assay [2] (Homo sapiens, KMS-12-BM, 96 h); 1260 nM in assay [3] (Homo sapiens, JJN-3, 96 h).
In the same order, the values of `Cn1nc(C(=O)NC2CCOCC2)cc1Nc1nccc(-c2cc(C#N)c3c(c2)C(C)(CO)CN3)n1` (centres unmarked) [Compound 25] are 8.1 nM, 1510 nM and 1900 nM.
In the same order, the values of `COCCn1ccc(Nc2nccc(-c3cc(C#N)c4c(c3)C(C)(CO)CN4)n2)n1` (centres unmarked) [Compound 16] are 2.8 nM, 7080 nM and 525 nM.
In the same order, the values of `COCCn1nc(C2CCOCC2)cc1Nc1nccc(-c2cc(C#N)c3c(c2)[C@@](C)(CO)CN3)n1` [Compound 66] are 13 nM, > 10000 nM and 324 nM.
As to `CC(C)n1ccc(Nc2nccc(-c3cc(C#N)c4c(c3)C(C)(CO)CN4)n2)n1` (centres unmarked) [Compound 20], the IC50 is 3.4 nM in assay [1]; 2510 nM in assay [2] (Homo sapiens, KMS-12-BM, 96 h); 229 nM in assay [3] (Homo sapiens, JJN-3, 96 h).
Consider `CC1(CO)CNc2c(C#N)cc(-c3ccnc(Nc4cc[nH]n4)n3)cc21` (centres unmarked) [Compound 21], for which the IC50 was 2.9 nM in assay [1]; 1020 nM in assay [2] (Homo sapiens, KMS-12-BM, 96 h); 813 nM in assay [3] (Homo sapiens, JJN-3, 96 h).
In the case of `Cc1cc(Nc2nccc(-c3cc(C#N)c4c(c3)C(C)(CO)CN4)n2)n(C)n1` (centres unmarked) [Compound 3], the IC50 in assay [1] was 4.2 nM; in assay [2] (Homo sapiens, KMS-12-BM, 96 h), ~1230 nM; in assay [3] (Homo sapiens, JJN-3, 96 h) it was 407 nM.
In the same order, the values of `COCCCn1nccc1Nc1nccc(-c2cc(C#N)c3c(c2)[C@](C)(CO)CN3)n1` [Compound 47] are 44 nM, > 10000 nM and 1550 nM.
On to `Cn1nccc1Nc1nccc(-c2cc(C#N)c3c(c2)C(C)(CO)CN3)n1` (centres unmarked) [Compound 2], for which the IC50 was found to be 6.9 nM in assay [1]; 794 nM in assay [2] (Homo sapiens, KMS-12-BM, 96 h); 141 nM in assay [3] (Homo sapiens, JJN-3, 96 h).
In the same order, the values of `Cn1cc(Nc2nccc(-c3cc(C#N)c4c(c3)C(C)(CO)CN4)n2)cn1` (centres unmarked) [Compound 4] are 2.5 nM, 162 nM and ~55 nM.
Consider `COC(C)Cn1nc(C)cc1Nc1nccc(-c2cc(C#N)c3c(c2)[C@@](C)(CO)CN3)n1` (single isomer, unassigned) [Compound 77], for which the IC50 in assay [1] turned out to be 13 nM; in assay [2], 1580 nM; in assay [3] (Homo sapiens, JJN-3, 96 h), 309 nM.
Turning to `CC(C)n1ccc(Nc2nccc(-c3cc(C#N)c4c(c3)[C@](C)(CO)CN4)n2)n1` [Compound 31], the IC50 in assay [1] was 14 nM; in assay [2] (Homo sapiens, KMS-12-BM, 96 h), > 10000 nM; in assay [3] (Homo sapiens, JJN-3, 96 h), 589 nM.
The corresponding values for `Cn1nc(Nc2nccc(-c3cc(C#N)c4c(c3)[C@@](C)(CO)CN4)n2)cc1CN1CCOCC1` [Compound 39] are 32 nM, > 10000 nM and 1440 nM.
For the compound `Cc1csc(Nc2nccc(-c3cc(C#N)c4c(c3)[C@@](C)(CO)CN4)n2)n1` [Compound 145], the IC50 in assay [1] was 1.5 nM; in assay [2] (Homo sapiens, KMS-12-BM, 96 h), ~3390 nM; in assay [3] (Homo sapiens, JJN-3, 96 h) it was 71 nM.
The corresponding values for `Cc1cc(Nc2nccc(-c3cc(C#N)c4c(c3)[C@@](C)(CO)CN4)n2)n(C2CCOCC2)n1` [Compound 63] are 9.8 nM, 6310 nM and 692 nM.
On to `Cn1ccc(Nc2ncc(F)c(-c3cc(C#N)c4c(c3)C(C)(CO)CN4)n2)n1` (centres unmarked) [Compound 143], for which the IC50 is 1.3 nM in assay [1]; 204 nM in assay [2] (Homo sapiens, KMS-12-BM, 96 h); ~81 nM in assay [3] (Homo sapiens, JJN-3, 96 h).
The corresponding values for `Cn1cc(Cl)c(Nc2nccc(-c3cc(C#N)c4c(c3)C(C)(CO)CN4)n2)n1` (centres unmarked) [Compound 32] are 27 nM, > 10000 nM and 7760 nM.
In the same order, the values of `Cn1ccc(Nc2nccc(-c3cc(C#N)c4c(c3)C(C)(CO)CN4)n2)n1` (centres unmarked) [Compound 1] are 4 nM, 2430 nM and 250 nM.
In the same order, the values of `Cc1nn(CC2CCOCC2)cc1Nc1nccc(-c2cc(C#N)c3c(c2)[C@@](C)(CO)CN3)n1` [Compound 75] are 13 nM, ~6030 nM and 2090 nM.
Take `Cc1cc(Nc2nccc(-c3cc(C#N)c4c(c3)[C@@](C)(CO)CN4)n2)n(CC(=O)N2CCCCC2)n1` [Compound 179]: the IC50 in assay [1] is 6.2 nM; in assay [2] (Homo sapiens, KMS-12-BM, 96 h), ~10000 nM; in assay [3] (Homo sapiens, JJN-3, 96 h), 832 nM.
In the same order, the values of `Cn1ccc(Nc2ncc(F)c(-c3cc(C#N)c4c(c3)[C@@](C)(CO)CN4)n2)n1` [Compound 144] are 2 nM, 44 nM and 36 nM.
In the same order, the values of `Cn1nc(Nc2nccc(-c3cc(C#N)c4c(c3)C(C)(CO)CN4)n2)cc1C1CC1` (centres unmarked) [Compound 29] are 4.4 nM, 1440 nM and ~603 nM.
The corresponding values for `Cc1cc(Nc2nccc(-c3cc(C#N)c4c(c3)[C@@](C)(CO)CN4)n2)n(CC2CCOCC2)n1` [Compound 61] are 4.4 nM, 355 nM and 162 nM.
For the compound `Cn1nc(Nc2nccc(-c3cc(C#N)c4c(c3)C(C)(CO)CN4)n2)cc1C(=O)NC1CCOCC1` (centres unmarked) [Compound 50], the IC50 in assay [1] is 3.8 nM; in assay [2] (Homo sapiens, KMS-12-BM, 96 h), > 10000 nM; in assay [3] (Homo sapiens, JJN-3, 96 h), 316 nM.
`Cn1nc(Cl)cc1Nc1nccc(-c2cc(C#N)c3c(c2)[C@@](C)(CO)CN3)n1` [Compound 41]: the IC50 in assay [1] was 2.1 nM; in assay [2] (Homo sapiens, KMS-12-BM, 96 h) it was ~479 nM; in assay [3] (Homo sapiens, JJN-3, 96 h), 78 nM.
For the compound `Cn1ccc(Nc2nccc(-c3cc(C#N)c4c(c3)[C@](C)(CO)CN4)n2)n1` [Compound 34], the IC50 in assay [1] is 10 nM; in assay [2] (Homo sapiens, KMS-12-BM, 96 h) it was ~10000 nM; in assay [3] (Homo sapiens, JJN-3, 96 h), 1180 nM.
As to `Cn1nc(Nc2nccc(-c3cc(C#N)c4c(c3)C(C)(CO)CN4)n2)cc1C(=O)N1CCC(F)(F)CC1` (centres unmarked) [Compound 22], the IC50 in assay [1] was 18 nM; in assay [2] (Homo sapiens, KMS-12-BM, 96 h) it was > 10000 nM; in assay [3] (Homo sapiens, JJN-3, 96 h), 2340 nM.
Consider `COCCCn1ccc(Nc2nccc(-c3cc(C#N)c4c(c3)C(C)(CO)CN4)n2)n1` (centres unmarked) [Compound 23], for which the IC50 in assay [1] worked out at 4.9 nM; in assay [2] (Homo sapiens, KMS-12-BM, 96 h) it was 3890 nM; in assay [3] (Homo sapiens, JJN-3, 96 h) it was 295 nM.
As to `COC(C)Cn1nc(C)cc1Nc1nccc(-c2cc(C#N)c3c(c2)[C@@](C)(CO)CN3)n1` (single isomer, unassigned) [Compound 78], the IC50 in assay [1] worked out at 9.8 nM; in assay [2], 9120 nM; in assay [3] it was 457 nM.
In the case of `COCCCn1nccc1Nc1nccc(-c2cc(C#N)c3c(c2)[C@@](C)(CO)CN3)n1` [Compound 46], the IC50 in assay [1] worked out at 6.6 nM; in assay [2] (Homo sapiens, KMS-12-BM, 96 h) it was 2400 nM; in assay [3] (Homo sapiens, JJN-3, 96 h), 158 nM.
In the same order, the values of `Cc1cc(Nc2nccc(-c3cc(C#N)c4c(c3)[C@@](C)(CO)CN4)n2)n(CC(C)C)n1` [Compound 55] are 4.4 nM, ~2040 nM and 59 nM.
In the same order, the values of `CC(C)(C)c1cc(Nc2nccc(-c3cc(C#N)c4c(c3)C(C)(CO)CN4)n2)n(CCO)n1` (centres unmarked) [Compound 10] are 13 nM, > 10000 nM and 724 nM.
Consider `Cn1nc(C2CCOCC2)cc1Nc1nccc(-c2cc(C#N)c3c(c2)[C@@](C)(CO)CN3)n1` [Compound 67], for which the IC50 in assay [1] was 1.6 nM; in assay [2] (Homo sapiens, KMS-12-BM, 96 h) it was 912 nM; in assay [3] (Homo sapiens, JJN-3, 96 h), 141 nM.
On to `Cc1cc(Nc2nccc(-c3cc(C#N)c4c(c3)C(C)(CO)CN4)n2)n(CCN(C)C)n1` (centres unmarked) [Compound 11], for which the IC50 in assay [2] (Homo sapiens, KMS-12-BM, 96 h) was determined as 3700 nM; in assay [3] (Homo sapiens, JJN-3, 96 h), 576 nM.
